# Reference: US11434241B2, “Pyrimidine derivatives for prevention and treatment of bacterial infections” (UNIVERSITE DE LIEGE, priority 2018, dated 2022)
# Like-named read-outs stand apart in the source and are kept apart here.
# How the values were obtained:
# [1] = test system: Staphylococcus epidermidis (ATCC 35984, also known as RP62A or MRSE); experiment: MIC determination on S. epidermidis (EUCAST, OD600 after overnight growth in MHB); type: cell-based
# Method: The Minimal Inhibitory Concentration (MIC) of molecules 2329, 2348, 2412, 2452 and 2461 was determined on Staphylococcus epidermidis (ATCC 35984, also known as RP62A) according to EUCAST (European Committee on Antimicrobial Susceptibility Testing) recommendations.
# Briefly, a single colony grown on a Tryptic Soy Agar (TSA) plate was resuspended and cultured in Tryptic Soy Broth (TSB) overnight (O/N) in aerobic conditions (37° C. with 220 rpm shaking), next day a 1:50 inoculum in Mueller-Hinton broth (MHB) was incubated in aerobic conditions for 3 hr and an inoculum of 1:100 dilution, corresponding to 3×10^5 CFU/ml, was incubated in presence or absence of different concentrations of the molecules in 1% DMSO (vehicle). After O/N growth the OD of each culture was measured at 600 nm in a spectrophotometer (OD600). The MIC represents the concentration at which there is no visible growth of bacteria, i.e. ΔOD at 600 nm equal to zero (blank is the medium alone).
# The Minimal Inhibitory Concentration (MIC) of pyrazolopyrimidine molecules 2539, 2544, 2666,2676, 2693, 2783, 2784 and 2782 and of purine molecules 2498, 2511, 2525, 2527, 2833, and 2840 was determined on S. epidermidis (ATCC 35984, also known as RP62A or MRSE) according to EUCAST (European Committee on Antimicrobial Susceptibility Testing) recommendations.
# Briefly, a single colony grown on an agar plate was resuspended and cultured in Triptic Soy Broth (TSB) medium overnight (O/N) in aerobic conditions (37° C. with 220 rpm shaking), next day a 1:50 inoculum in Mueller-Hinton broth (MHB) was incubated in aerobic conditions for 3 hr (OD=0.08-0.1) and an inoculum of 1:300 dilution, corresponding to 3×10^5 CFU/ml, was incubated in presence or absence of different concentrations of each of the molecules in 1% DMSO (vehicle). After O/N growth the OD of each culture was measured at 600 nm (600) in a spectrophotometer (Victor 3-Perkin Elmer). The MIC represents the concentration at which there is no visible growth of bacteria, i.e. ΔOD at 600 nm equal to zero (where ΔOD is the difference between the OD with the molecule and the OD of the blank, the medium alone).
# (§1) Molecule 36z has been tested for its potential antibacterial activity by determining its minimal inhibitory concentration (MIC) according to protocols recommended by EUCAST to assess the efficacy of antibiotics against bacterial strains. In brief MIC in MRSA (ATCC BAA-1556) or in Xen29 (Perkin Elmer-ATCC 12600) for 36z (molecule 25 in WO2009/034386) was determined by culturing a single colony of MRSA or Xen29 in brain heart infusion (BHI) broth overnight (O/N) in aerobic conditions (37° C. with 220 rpm shaking), while MIC for MRSE (ATCC 35984) was determined by culturing MRSE in TSB O/N. Next day a 1:100 inoculum in Mueller-Hinton broth (MHB) is incubated in aerobic conditions for 3 hr (OD=0.08-0.1) and an inoculum of 1:300 dilution, corresponding to 3×10^5 CFU/ml, is incubated in presence or absence of different concentrations of the tested molecules in 1% DMSO. After O/N growth the OD of each culture was measured at 600 nm (OD600) in a spectrophotometer (Victor 3-Perkin Elmer). The MIC represents the concentration at which there is no visible growth of bacteria, i.e. ΔOD at 600 nm equal to zero (blank is the medium alone). No antibacterial activity was found against MRSA (ATCC BAA-1556), Xen29 (Perkin Elmer-ATCC 12600 or MRSE (ATCC 35984) strains when the molecule was used at concentrations up to 200 μM.
# [2] = test system: S. aureus Xen29 (ATCC 12600); experiment: MIC determination on bioluminescent S. aureus Xen29; type: cell-based, Staphylococcus aureus; settings: for MIC: Staphylococcus aureus; for antibacterial activity / inhibition of Xen29 growth (in words): MHB medium
# Method: (§2) Further experiments are conducted using different strains of S. aureus, as clinically relevant Gram-positive bacterial strains: S. aureus ATCC 25904, methicillin-resistant S. aureus (MRSA) ATCC BAA-1556, Glycopeptide intermediate-resistant (GISA) S. aureus Mu-50 (ATCC 700695) in order to determine the Minimal Inhibitory Concentration (MIC) which is the minimal concentration required to prevent bacterial growth. The bioluminescent strain S. aureus Xen29 (ATCC 12600) was also used. This strain is derived from the parental strain S. aureus ATCC 12600, a pleural fluid isolate, which is also designated as NCTC8532.
# (§3) A single colony selected from the different strains of S. aureus is resuspended and cultured in brain heart infusion (BHI) broth overnight (O/N) in aerobic conditions (37° C. with 220 rpm shaking), next day a 1:100 inoculum in Mueller-Hinton broth (MHB) is incubated in aerobic conditions for 3 hr (=OD0.08-0.1) and an inoculum of 1:300 dilution, corresponding to 3×10^5 CFU/ml, is incubated in presence or absence of different concentrations of the tested molecules in 1% DMSO. After O/N growth the OD of each culture was measured at 600 nm (OD600) in a spectrophotometer (Victor 3-Perkin Elmer). The MIC represents the concentration at which there is no visible growth of bacteria, i.e. ΔOD at 600 nm equal to zero (blank is the medium alone). […] The MIC of molecule 2329 against Glycopeptide intermediate-resistant (GISA) S. aureus Mu-50 (ATCC 700695) is in between 25 and 30 μM, while it is above 50 μM for molecules 2348, 2412, and 2452.
# (§4) Further experiments are conducted using different strains of S. aureus, as clinically relevant Gram-positive bacterial strains: methicillin-resistant S. aureus (MRSA) ATCC BAA-1556 and S. aureus Xen29 (Perkin Elmer ATCC 12600).
# (§5) To determine the MIC of the above mentioned molecules in MRSA or in Xen29, a single colony of MRSA or Xen29 is resuspended and cultured in brain heart infusion (BHI) broth overnight (O/N) in aerobic conditions (37° C. with 220 rpm shaking), next day a 1:100 inoculum in Mueller-Hinton broth (MHB) is incubated in aerobic conditions for 3 hr (OD=0.08-0.1) and an inoculum of 1:300 dilution, corresponding to 3×10^5 CFU/ml, is incubated in presence or absence of different concentrations of the tested molecules in 1% DMSO. After O/N growth the OD of each culture was measured at 600 nm (OD600) in a spectrophotometer (Victor 3-Perkin Elmer). The MIC represents the concentration at which there is no visible growth of bacteria, i.e. ΔOD at 600 nm equal to zero (blank is the medium alone).
# as §1
# [3] = test system: methicillin-resistant S. aureus (MRSA) ATCC BAA-1556; experiment: MIC determination on methicillin-resistant S. aureus; type: cell-based, Staphylococcus aureus; settings: for MIC: Staphylococcus aureus; for antibacterial activity against MRSA (in words): MHB medium
# Method: as §2, §3, §4, §5, §1
# [4] = Staphylococcus epidermidis, Mueller-Hinton broth (MHB), read-out: MIC S. epidermidis RP62
# [5] = ATCC12600, read-out: MIC S. aureus Xen29
SMILES,"MIC [1, 4] [µM]","MIC [2, 5] [µM]",MIC ([3]; read-out: MIC S. aureus MRSA) [µM],antibacterial activity / inhibition of MRSE growth (in words) ([1]; MHB medium),"MIC ([1]; MHB medium, tested up to 100 μM, read-out: MIC MRSE) [µM]","MIC ([1]; Staphylococcus epidermidis, MHB medium, tested up to 100 μM, read-out: MIC MRSE) [µM]",antibacterial activity / inhibition of Xen29 growth (in words) [2],"MIC ([2]; ATCC12600, read-out: MIC Xen29) [µM]",antibacterial activity against MRSA (in words) [3],MIC ([3]; read-out: MIC MRSA) [µM],"MIC ([1]; Staphylococcus epidermidis, read-out: MIC MRSE) [µM]"
"CCCSc1nc(N[C@@H]2C[C@H]2c2ccc(F)c(F)c2)c2ncn(C)c2n1 [Molecule 2329, N-((1R,2S)-2-(3,4-difluorophenyl)cyclopropyl)-9-methyl-2-(propylthio)-9H-purin-6-amine]",20,20 to 25,20,,,,,,,,
"CCCSc1nc(N[C@@H]2C[C@H]2c2ccc(F)c(F)c2)c2ncn(CC)c2n1 [Molecule 2348, N-((1R,2S)-2-(3,4-difluorophenyl)cyclopropyl)-9-ethyl-2-(propylthio)-9H-purin-6-amine]",20,20 to 25,25,,,,,,,,
"C=CCn1cnc2c(N[C@@H]3C[C@H]3c3ccc(F)c(F)c3)nc(SCCC)nc21 [Molecule 2412, 9-allyl-N-((1R,2S)-2-(3,4-difluorophenyl)cyclopropyl)-2-(propylthio)-9H-purin-6-amine]",> 50,20 to 25,25 to 50,,,,,,,,
"C#CCn1cnc2c(N[C@@H]3C[C@H]3c3ccc(F)c(F)c3)nc(SCCC)nc21 [Molecule 2452, N-((1R,2S)-2-(3,4-difluorophenyl)cyclopropyl)-9-(prop-2-yn-1-yl)-2-(propylthio)-9H-purin-6-amine]",> 50,20 to 25,25 to 50,,,,,,,,
"CCn1cnc2c(N[C@@H]3C[C@H]3c3ccc(F)c(F)c3)nc(SC)nc21 [Molecule 2511, N-((1R,2S)-2-(3,4-difluorophenyl)cyclopropyl)-9-ethyl-2-(methylthio)-9H-purin-6-amine]",,,,able to inhibit MRSE growth,>100,> 100,able to inhibit,30,active,30,
"CCSc1nc(N[C@@H]2C[C@H]2c2ccc(F)c(F)c2)c2cnn(C)c2n1.Cl [Molecule 2666, N-((1R,2S)-2-(3,4-difluorophenyl)cyclopropyl)-6-(ethylthio)-1-methyl-1H-pyrazolo[3,4-d]pyrimidin-4-amine hydrochloride]",,,,able to inhibit MRSE growth,,,able to inhibit,20,active,20,50
